The structures appear in SMILES notation. Entries after “also recorded” stand apart in the source; their conditions may differ.

In data set [1] the test system is WNV (epidemic strain 3356). Kind of data set: microbe, parasite or virus in culture. The data set is classed as cell-based. As to conditions: West Nile virus, Vero, 42 h.
The test system of data set [2] is G6871A mutant virus (WNV). In kind it is cell-based. As to conditions: Vero cells, 0.1 MOI.
A further data set in a line: in vitro. As to conditions: African green monkey.
For another data set, the system named is WEEV (strain Cova 746). In kind it is cell-based, Western equine encephalitis virus.
Data set [3] has as its system VSV (New Jersey serotype). In kind it is cell-based, vesicular stomatitis virus.
The next data set deals with WNV VLP. In kind it is cell-based, West Nile virus. As to conditions: 1.5 μM.
Another data set has as its system DENV-1 VLP. In kind it is cell-based, dengue virus. As to conditions: 1.5 μM.
In data set [4] the test system is Vero cells containing WNV replicon (Rluc-Neo-Rep). In kind it is cell-based, West Nile virus. As to conditions: 1.5-1 μM for 24 h or 48 h.
Data set [5] relates to Vero cells containing DENV-1 replicon (Rluc-Neo-Rep). The data set is classed as cell-based, dengue virus. As to conditions: 1.5-1 μM for 24 h or 48 h.
Data set [6] deals with Rluc2A-Rep of WNV in BHK-21 cells. In kind it is cell-based, West Nile virus.
Data set [7] relates to Rluc2A-Rep of DENV-1 in BHK-21 cells. The data set is classed as cell-based, dengue virus.
Another data set relates to WNV. The experiment in a line: Time-of-addition analysis in WNV infection. The data set is classed as cell-based, West Nile virus. As to conditions: 1.2 μM; Vero cells, WNV MOI 10; titers at 20 h post-infection.
For data set [8], the system named is lycorine-resistant WNV (P12 viruses). The experiment in a line: Resistance assay, lycorine-resistant P12 WNV. The data set is classed as cell-based, West Nile virus. As to conditions: 1.2 μM.
Data set [9] concerns G6871A mutant WNV replicon (Rluc2A-Rep). The data set is classed as cell-based, West Nile virus. As to conditions: 1.5 μM; BHK-21 cells.
Another data set deals with WNV (WT and G6871A MT). In kind it is cell-based. As to conditions: 1.2 μM; Vero cells, MOI 5; each time point.
The next data set deals with poliovirus. As to conditions: cited from earlier work.
A further data set has as its system HIV-1. As to conditions: at a noncytotoxic concentration; Szlavik et al., 2004; cited from earlier work.
The target of the next data set is WNV RdRp (West Nile virus, UniProt Q9Q6P4). The experiment in a line: Enzyme assay, recombinant WNV RdRp. As to conditions: concentrations up to 100 μM.
Sequence of WNV RdRp (Q9Q6P4 2529-3433): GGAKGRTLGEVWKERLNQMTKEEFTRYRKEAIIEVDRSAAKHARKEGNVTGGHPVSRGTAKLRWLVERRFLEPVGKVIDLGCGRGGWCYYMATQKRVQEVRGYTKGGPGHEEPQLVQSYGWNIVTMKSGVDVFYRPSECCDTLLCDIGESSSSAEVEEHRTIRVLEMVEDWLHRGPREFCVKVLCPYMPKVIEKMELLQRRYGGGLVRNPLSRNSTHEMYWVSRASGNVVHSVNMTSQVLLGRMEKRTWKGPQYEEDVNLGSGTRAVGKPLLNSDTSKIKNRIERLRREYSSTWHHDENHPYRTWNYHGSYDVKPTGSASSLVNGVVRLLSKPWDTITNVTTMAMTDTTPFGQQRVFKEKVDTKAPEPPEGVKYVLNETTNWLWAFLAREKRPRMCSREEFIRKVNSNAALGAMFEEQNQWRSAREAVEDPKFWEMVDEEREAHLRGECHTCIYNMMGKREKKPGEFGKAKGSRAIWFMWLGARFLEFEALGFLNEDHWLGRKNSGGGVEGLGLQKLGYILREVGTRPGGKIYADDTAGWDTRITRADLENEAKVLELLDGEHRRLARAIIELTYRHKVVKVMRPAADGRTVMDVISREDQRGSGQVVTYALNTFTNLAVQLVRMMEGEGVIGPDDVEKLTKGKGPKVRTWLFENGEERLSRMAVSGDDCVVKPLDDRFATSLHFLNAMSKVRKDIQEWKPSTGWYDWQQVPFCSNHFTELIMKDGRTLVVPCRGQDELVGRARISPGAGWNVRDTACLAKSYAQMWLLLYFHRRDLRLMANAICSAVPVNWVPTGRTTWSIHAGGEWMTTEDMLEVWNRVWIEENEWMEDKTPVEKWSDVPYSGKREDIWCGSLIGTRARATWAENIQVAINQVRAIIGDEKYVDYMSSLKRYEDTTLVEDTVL
The target of another data set is WNV MTase (West Nile virus, UniProt Q9Q6P4). Kind of data set: Enzyme assay, recombinant WNV MTase. As to conditions: concentrations up to 100 μM.
Sequence of WNV MTase (Q9Q6P4 2529-3433): as above
A further data set concerns the target WNV NTPase (West Nile virus, UniProt Q9Q6P4). Kind of data set: Enzyme assay, recombinant WNV NTPase. As to conditions: concentrations up to 100 μM.
A further data set deals with WNV protease (with NS2B) (West Nile virus, UniProt Q9Q6P4). Kind of data set: Enzyme assay, recombinant WNV protease. As to conditions: concentrations up to 100 μM.
Sequence of WNV protease (with NS2B) (Q9Q6P4 1506-2124): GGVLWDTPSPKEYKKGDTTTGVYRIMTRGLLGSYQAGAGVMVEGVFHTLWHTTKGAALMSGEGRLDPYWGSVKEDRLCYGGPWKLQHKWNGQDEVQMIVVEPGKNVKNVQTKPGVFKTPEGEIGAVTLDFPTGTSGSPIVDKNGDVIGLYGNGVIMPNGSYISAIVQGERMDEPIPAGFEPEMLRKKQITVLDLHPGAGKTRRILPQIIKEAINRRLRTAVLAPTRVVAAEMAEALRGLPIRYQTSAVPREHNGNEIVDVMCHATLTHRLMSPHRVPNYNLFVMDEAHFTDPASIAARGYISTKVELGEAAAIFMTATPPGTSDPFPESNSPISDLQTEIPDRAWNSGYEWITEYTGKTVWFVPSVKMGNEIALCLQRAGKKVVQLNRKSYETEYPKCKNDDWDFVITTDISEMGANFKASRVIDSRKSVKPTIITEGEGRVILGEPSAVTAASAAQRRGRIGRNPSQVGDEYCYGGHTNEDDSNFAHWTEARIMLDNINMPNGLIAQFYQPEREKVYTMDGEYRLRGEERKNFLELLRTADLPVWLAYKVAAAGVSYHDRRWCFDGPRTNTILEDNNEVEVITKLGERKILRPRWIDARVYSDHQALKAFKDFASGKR
Sequence of WNV protease (with NS2B) (Q9Q6P4 1375-1505): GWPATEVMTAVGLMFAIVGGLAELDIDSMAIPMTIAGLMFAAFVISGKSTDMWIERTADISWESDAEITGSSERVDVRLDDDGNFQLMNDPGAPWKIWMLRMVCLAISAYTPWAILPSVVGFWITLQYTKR

Sequence of WNV NTPase (Q9Q6P4 1506-2124): as the sequence (Q9Q6P4 1506-2124) above

Turning to `CC(C)(C)[Si](C)(C)O[C@H]1C=C2CCN3Cc4cc5c(cc4[C@H]([C@@H]1O)[C@@H]23)OCO5` [Compound 1198], the concentration giving a half-maximal response (EC50) (usually the concentration needed to bring the measured effect to its halfway point) in [1] was 0.73 µM.
`CC(=O)O[C@@H]1C(=O)C=C2CCN3Cc4cc5c(cc4[C@H]1[C@@H]23)OCO5` [Compound 1200] showed a 50% effective concentration (EC50) in [1] of 0.19 µM. In addition, the “resistance of G6871A mutant virus to the compound” value in [2] was “resistant”. The CC50 in the data set on Vero cells (African green monkey) and in the data set “in vitro” was more than 300 µM in each case.
As to `CC(=O)O[C@H]1[C@H]2c3cc4c(cc3CN3CCC(=C[C@@H]1O)[C@H]23)OCO4` [Compound 1181], the 50% effective concentration (EC50) in data set [1] was found to be 0.86 µM.
`CC(=O)O[C@H]1[C@H]2c3cc4c(cc3CN3CCC(=C[C@@H]1OC(C)=O)[C@H]23)OCO4` [Compound 1180] registered a half-maximal effective concentration (EC50) in [1] of 1.49 µM.
Consider `CC(=O)O[C@H]1[C@H]2c3cc4c(cc3C(=O)N3CCC(=C[C@@H]1OC(C)=O)[C@H]23)OCO4` [Compound 1197], for which the EC50 in [1] was not below 300 µM. Besides, the CC50 in the data set with Vero cells (African green monkey) was more than 300 µM.
`CC(=O)OCCC1=C[C@H](OC(C)=O)[C@@H](OC(C)=O)[C@H]2c3cc4c(cc3CN(C(=O)OCC(Cl)(Cl)Cl)[C@H]12)OCO4` [Compound 1194] showed an EC50 in data set [1] of 72 µM. Moreover, the CC50 in the data set on Vero cells (African green monkey) was more than 300 µM.
Take `O[C@H]1[C@H]2c3cc4c(cc3CN3CCC(=C[C@@H]1O)[C@H]23)OCO4` [Lycorine]: in data set [1], a half-maximal effect (EC50) was put at 0.23 µM. Also, the “inhibition of WEEV (viral titer)” value in the data set on WEEV (strain Cova 746) is listed as “did not inhibit; also recorded: suppressed titers of neither WEEV nor VSV; also recorded: does not inhibit”. Moreover, the “inhibition of VSV (viral titer)” value in data set [3] is “did not inhibit; also recorded: suppressed titers of neither WEEV nor VSV; also recorded: does not inhibit”. For the same compound, in the data set on WNV VLP, the “reduction of luciferase signals, WNV VLP-infected cells” value was 1,400 fold. Further, the “reduction of luciferase signals, DENV-1 VLP-infected cells” value with DENV-1 VLP is recorded as 1,200 fold. Also, in data set [4], the “luciferase activities in WNV Rluc-Neo-Rep cells” value is “reduced luciferase activities”. In addition, in data set [5], the “luciferase activities in DENV Rluc-Neo-Rep cells” value is “reduced luciferase activities”. Besides, in [6] (1.5 μM, 2, 4, and 6 h p.t.), the “suppression of early luciferase signals (viral translation), WNV replicon” value is not above 30%. For the same compound, the “reduction of late luciferase signals (RNA synthesis), WNV replicon” value in data set [6] (1.5 μM, 24, 30 and 48 h p.t.) is on record as more than 99%. Besides, the “suppression of early luciferase signals (viral translation), DENV-1 replicon” value in data set [7] (1.5 μM, 2, 4, and 6 h p.t.) is not above 30%. For the same compound, the “reduction of late luciferase signals (RNA synthesis), DENV-1 replicon” value in [7] (1.5 μM, 24, 30 and 48 h p.t.) was more than 99%. Further, in the data set on WNV, the “antiviral activity when added after 10 h post-infection” value is reported as “completely lost its antiviral activity; also recorded: completely lost the inhibitory activity”. In [8], the “increase of resistance of the P12 viruses over that of the WT” value is reported as “approximately 100 fold”. In data set [8] (Vero cells, MOI 0.1, 42 h p.i.), the “reduction of viral titers of P12 virus-infected cells” value is “approximately 10 fold”. Also, in data set [9], the “suppression of reporting signals at 2, 4, and 6 h p.t., G6871A mutant replicon” value was not above 30%. Besides, the “resistance of G6871A mutant virus to the compound” value in data set [2] is recorded as “showed a resistance level close to those of the P12 viruses”. Besides, the “viral protein expression (NS1, NS3, NS5), western blotting” value in the data set on WNV (WT and G6871A MT) was “suppressed viral protein expression”. Moreover, in the data set on Vero cells (African green monkey), the CC50 is 24 µM and the cell viability (in general, the share of living cells, or the viability signal relative to a control) is more than 90%. In addition, in the data set on Vero cells (at 31 μM), the “decrease of viability of Vero cells” value is approximately 50%. For the same compound, in the data set on poliovirus, the “suppression of poliovirus viral translation” value is approximately 90%. In addition, in the data set on HIV-1, the “inhibition of HIV-1” value is reported as “does not inhibit”. The “suppression of WNV RdRp activity” value at WNV RdRp is on record as “None of the enzyme activities were suppressed”. The “suppression of WNV MTase activity” value at WNV MTase is “None of the enzyme activities were suppressed”. Further, the “suppression of WNV NTPase activity” value on WNV NTPase is listed as “None of the enzyme activities were suppressed”. For the same compound, on WNV protease (with NS2B), the “suppression of WNV protease (with NS2B) activity” value is reported as “None of the enzyme activities were suppressed”.
`CC(=O)O[C@H]1[C@H]2c3cc4c(cc3CN(C(=O)OCC(Cl)(Cl)Cl)[C@@H]2C(CCCl)=C[C@@H]1OC(C)=O)OCO4` [Compound 1193]: the 50% effective concentration (EC50) in data set [1] is more than 300 µM. Also, in the data set on Vero cells (African green monkey), the CC50 was more than 300 µM.
